The source of these data is US20230201301A1 (priority 2020, published 2023).

One assay deals with SARS-CoV-2. The format is in vivo, transgenic mice B6.Cg-Tg(K18-ACE2)2Prlmn/J.
A further assay has as its system sTREM-1. More on the design: species or system transgenic mice B6.Cg-Tg(K18-ACE2)2Prlmn/J. As to conditions: mouse, in vivo, ip.
For another assay, the system named is cytokines/chemokines. Also on record: species or system transgenic mice B6.Cg-Tg(K18-ACE2)2Prlmn/J. Conditions: mouse, in vivo.

For LQEEDTGEYGCV (TLT-1 peptide) [LR12], the “bodyweight loss day 0 to day 10” value in the assay on SARS-CoV-2 (2 mg i.p. at t0+1 h, 24, 48, 72, 96 h, vs vehicle, LOCF, FIG. 2-3) is given as “significant reduced bodyweight loss”. Besides, in the assay with SARS-CoV-2 (2 mg i.p. at t0+1 h, 24, 48, 72, 96 h, vs vehicle, N=16 per treatment group, FIG. 1), the “mortality (survival D0 to D10)” value is given as “significant reduction in mortality”. The sequence also showed a mean respiratory score with SARS-CoV-2 (scale 0 (normal respiration) to 5 (dead mouse), up to day 10, 2 mg i.p., vehicle group 5, FIG. 5) of 3. For the same sequence, in the assay with SARS-CoV-2 (scale 1 (healthy mouse) to 5 (dead mouse), up to day 10, 2 mg i.p., vehicle group 5, FIG. 4), the mean clinical score is listed as 3.5. In the assay with sTREM-1, the “plasma sTREM-1 level (median)” value was 132.3 pg/mL. Moreover, in the assay on cytokines/chemokines, the “IP-10 plasma concentration vs vehicle” value is listed as “decrease”. In the assay on cytokines/chemokines (ip), the “IFNα plasma concentration vs vehicle” value is listed as “decrease”, the “IL-6 plasma concentration vs vehicle” value is given as “decrease” and the “IL-10 plasma concentration vs vehicle” value is reported as “increase”.
